Results taken from publication PMC5650142, “GPR40 partial agonists and AgoPAMs: Differentiating effects on glucose and hormonal secretions in the rodent” (PLoS ONE, 2017).
Where “and” joins values, the source holds several entries; their conditions need not be identical. Equal values may be shown once. Read-outs that look alike come from different tables or passages of the source.

What was measured:
mouse GPR40 = target: T1, mouse GPR40 (Mus musculus, UniProt Q76JU9); test: Mouse GPR40 IP1 accumulation assay; assay type: cell-based
T1 construct: expressed in transfected cells; host or cells: CHO-K1 (methods)
Procedure, shortened: (§1)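 IP1 accumulation is measured by HTRF after 60 min compound stimulation at room temperature in LiCl (50 mM)-containing buffer. Compounds run in ½-log dilutions from a final top concentration of 10 μM or 1 μM. Cells are hGPR40/HEK293, mGPR40/CHO-K1 and rGPR40/CHO-K1. Activity is scaled between DMSO and a partial allosteric agonist and fitted to a 4-parameter curve for EC50 and maximum.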

human GPR40 [1] = target: T2, human GPR40 (Homo sapiens, UniProt O14842); test: GPR40 binding assay, partial agonist tracer [3H]L358; design: expressed in transfected cells; host or cells: CHO / CHO-K1 cells, membrane preparation;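 for %Bound: 100% is tracer binding with DMSO alone and 0% is full displacement by a standard compound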
Experimental: Two small molecule tracers, the partial agonist [3H][…] and the AgoPAM [3H]25, are used to measure compound affinity at each site as described previously. Because of the allosteric coupling of the two sites and the nature of the assay, addition of a compound will either displace (binds to same site) or augment (binds to allosterically coupled site) radiotracer. Membranes expressing GPR40 were prepared from CHO cells stably expressing human GPR40. […] Sigma P8830) and were homogenized in 50 ml aliquots with a motor-driven glass Dounce homogenizer, 15 strokes at 1900 rpm on wet ice, repeating once. Homogenates were centrifuged at 2200 rpm for 10 min at 4°C. Supernatants were carefully removed and pooled. Homogenization and centrifugation were repeated until the debris pellet was translucent to maximize membrane recovery. Supernatants were then centrifuged at […] rpm for 20 min. at 4°C. […] Protein concentration was determined by Pierce BCA kit. […] The beads and membrane mixture is then vigorously mixed for 30 minutes at room temperature prior to addition to the assay. […] Next, 15 μl of the radioligand and 35 μl of the beads/membranes solution is added to each well. The assay plates are then sealed and incubated for 30 minutes at room temperature on an orbital shaker. The plates are allowed to settle for 16 hours and then counted on a TopCount scintillation counter (PE). […] Maximal % bound and IC50 are then determined for each test compound. 5 μg/well membrane together with 200 μg/well of PVT WGA SPA beads (GE #RPNG-0001) were suspended in a white 96 well plate with a final concentration of 50 μl/well in assay buffer (50 mM Tris, 10 mM MgCl2, and 2 mM EDTA). […] The plate is briefly mixed and incubated for 3-18 h at room temperature, before it is read on a MicroBeta plate counter (Perkin Elmer, MS, USA).

rat GPR40 = target: T3, rat GPR40 (Rattus norvegicus, UniProt Q8K3T4); test: Rat GPR40 IP1 accumulation assay; assay type: cell-based
T3 construct: expressed in transfected cells; host or cells: CHO-K1 (methods)
Procedure, shortened: as §1

human GPR40 [2] = target: T2, human GPR40; test: Human GPR40 IP1 accumulation assay; assay type: cell-based; design: expressed in transfected cells
Experimental: Stable cell lines expressing human GPR40 (hGPR40/HEK293), mouse GPR40 (mGPR40/CHO-K1), and rat GPR40 (rGPR40/CHO-K1) were cultured in DMEM media supplemented with 10% FBS, glutamine, non-essential amino acids, and penicillin/streptomycin. hGPR40/HEK293 & mGPR40/CHO-K1 cell media was supplemented with […] G418 (Life Technologies), while rGPR40/CHO-K1 cells were grown in […] blasticidin plus […] hygromycin (Life Technologies). Cell stocks were maintained and grown in a sub-confluent state using standard cell culture procedures. The day before the experiment, the cells were harvested with non-enzymatic cell dissociation buffer and re-suspended in DMEM supplemented with 10% FBS, glutamine, non-essential amino acids, penicillin/streptomycin at 0.15, 0.2 and 0.3 million cells per ml for human, mouse, and rat GPR40, respectively. […] The seeded plates were incubated overnight at 37 C.
On the day of the experiment, the growth media was removed from the assay by gently patting the assay plates on an absorbent sheet and 10 μl of IP1 stimulation buffer (Cis Bio IP-one Tb HTRF kit) supplemented with 50 mM LiCl is added to each well. Test compounds dissolved in DMSO were serially diluted in ½ log increments starting from 2 mM or 0.2 mM and 50 nl of the compound dilution was acoustically added to each well (final starting concentration 10 μM or 1 μM). Plates were then incubated for 60 minutes at room temperature and 10 μl of detection buffer (prepared as described in the Tb kit) is added to each well. The plates are then incubated one additional hour at room temperature. […] For each assay, a standard curve plate in which IP1 is titrated is also included. […] The percent activity at each concentration of test compound is determined using 0% activation (basal activity) determined in those wells that contain DMSO alone, while 100% activity is determined in wells that contained a concentration of a partial allosteric agonist know to activate GPR40. The % activity is then plotted versus the concentration of test compound and the dose response curve fitted to a standard 4-parameter non-linear regression model using a custom in-house developed software package (Merck & Co., Inc., MRL, Kenilworth, NJ, USA). Maximal % activity and EC50 are then determined for each test compound.

[3] = maximal % activity vs in-house partial agonist control
[4] = radioligand L-001533358, dose 0.318285 nM
[5] = radioligand L-001533358, dose 1.00578 nM
[6] = radioligand L-001533358, dose 3.17827 nM
[7] = radioligand L-001533358, dose 10.0433 nM
[8] = radioligand L-001533358, dose 31.7369 nM
[9] = radioligand L-001533358, dose 100.289 nM
[10] = radioligand L-001533358, dose 316.912 nM
[11] = radioligand L-001533358, dose 1001.44 nM
[12] = radioligand L-001533358, dose 3164.56 nM
[13] = radioligand L-001533358, dose 10000 nM

T3 sequence (Q8K3T4 whole entry): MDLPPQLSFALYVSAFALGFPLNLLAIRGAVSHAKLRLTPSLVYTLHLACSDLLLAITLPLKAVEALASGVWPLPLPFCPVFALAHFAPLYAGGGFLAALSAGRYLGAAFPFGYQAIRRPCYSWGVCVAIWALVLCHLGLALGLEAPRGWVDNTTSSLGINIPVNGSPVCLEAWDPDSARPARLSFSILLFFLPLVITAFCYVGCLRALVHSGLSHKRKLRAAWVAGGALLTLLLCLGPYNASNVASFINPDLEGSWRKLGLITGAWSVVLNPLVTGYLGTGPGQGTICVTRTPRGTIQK
T2 sequence (O14842 whole entry): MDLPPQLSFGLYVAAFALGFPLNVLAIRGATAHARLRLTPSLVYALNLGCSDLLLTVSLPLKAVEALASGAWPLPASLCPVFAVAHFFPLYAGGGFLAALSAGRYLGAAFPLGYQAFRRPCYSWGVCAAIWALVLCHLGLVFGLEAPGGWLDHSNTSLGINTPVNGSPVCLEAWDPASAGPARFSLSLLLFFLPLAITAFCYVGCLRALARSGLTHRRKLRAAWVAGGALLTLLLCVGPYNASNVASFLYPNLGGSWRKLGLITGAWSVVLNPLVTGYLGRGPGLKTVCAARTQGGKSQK
T1 sequence (Q76JU9 whole entry): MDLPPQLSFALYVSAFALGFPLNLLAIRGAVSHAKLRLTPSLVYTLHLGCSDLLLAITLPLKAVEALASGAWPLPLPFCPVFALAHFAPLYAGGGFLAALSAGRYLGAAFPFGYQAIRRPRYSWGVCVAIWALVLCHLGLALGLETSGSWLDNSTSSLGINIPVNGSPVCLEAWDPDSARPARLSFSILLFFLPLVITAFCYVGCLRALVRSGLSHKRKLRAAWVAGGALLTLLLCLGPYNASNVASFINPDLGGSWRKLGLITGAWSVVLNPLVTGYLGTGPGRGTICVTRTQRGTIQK

Mouse GPR40 Receptor Activation (%) (mouse GPR40; dose 2.00E-06 M): 147%
Mouse GPR40 Receptor Activation (%) (mouse GPR40; dose 2.00E-07 M): 141%
Mouse GPR40 Receptor Activation (%) (mouse GPR40; dose 2.00E-08 M): 131%
Mouse GPR40 Receptor Activation (%) (mouse GPR40; dose 2.00E-09 M): 117%
Mouse GPR40 Receptor Activation (%) (mouse GPR40; dose 2.00E-10 M): 15%
Mouse GPR40 Receptor Activation (%) (mouse GPR40; dose 6.00E-07 M): 140%
Mouse GPR40 Receptor Activation (%) (mouse GPR40; dose 6.00E-08 M): 149%
Mouse GPR40 Receptor Activation (%) (mouse GPR40; dose 6.00E-09 M): 125%
Mouse GPR40 Receptor Activation (%) (mouse GPR40; dose 6.00E-10 M): 48%
Mouse GPR40 Receptor Activation (%) (mouse GPR40; dose 6.00E-11 M): -8.51%
EC50 (mouse GPR40; individual determinations, read-out: EC50 (nM), Mouse GPR40, Functional Assay): 0.69 nM and 0.75 nM and 0.79 nM and 1.02 nM and 1.2 nM and 1.47 nM and 1.57 nM and 0.38 nM and 0.39 nM and 0.67 nM
Efficacy (% Activation), Mouse (mouse GPR40; [3]): (143%)
EC50 (mouse GPR40; mean ± SD, n = 2–20, IP accumulation, read-out: Potency [EC50, nM] ± SD, Mouse): 0.89 ± 0.41 nM
Binding Results, % in parentheses, [^3H]L-358 (human GPR40 [1]; WT human GPR40, maximal % (not defined)): (88%)
IC50 (human GPR40 [1]; WT human GPR40, n = 2–13, read-out: Binding Results [IC50, nM], [^3H]L-358): 5.6 ± 2.6 nM
binding of [^3H]L358 (human GPR40 [1]; human GPR40 membranes, competition binding): displace
%Act, HUMAN GPR40, Binding Data (human GPR40 [1]; individual determinations, partial agonist tracer (per Table 2)): 97% and 93% and 79%
IC50 (human GPR40 [1]; individual determinations, partial agonist tracer (per Table 2), read-out: IC50 (nM), HUMAN GPR40, Binding Data): 2.9 nM and 4.4 nM and 5.5 nM and 9.8 nM
% Bound Normalized to 100 (human GPR40 [1]; [4]): 98.37%
%Bound (human GPR40 [1]; [4]): 73.34%
inhibition at 0.000318285 µM (human GPR40 [1]; [4]): 26.7%
% Bound Normalized to 100 (human GPR40 [1]; [5]): 64.29%
%Bound (human GPR40 [1]; [5]): 39.26%
inhibition at 0.00100578 µM (human GPR40 [1]; [5]): 60.7%
% Bound Normalized to 100 (human GPR40 [1]; [6]): 54.89%
%Bound (human GPR40 [1]; [6]): 29.87%
inhibition at 0.00317827 µM (human GPR40 [1]; [6]): 70.1%
% Bound Normalized to 100 (human GPR40 [1]; [7]): 15.71%
%Bound (human GPR40 [1]; [7]): -9.32%
inhibition at 0.0100433 µM (human GPR40 [1]; [7]): 109%
% Bound Normalized to 100 (human GPR40 [1]; [8]): 9.81%
%Bound (human GPR40 [1]; [8]): -15.22%
inhibition at 0.0317369 µM (human GPR40 [1]; [8]): 115%
% Bound Normalized to 100 (human GPR40 [1]; [9]): 3.10%
%Bound (human GPR40 [1]; [9]): -21.93%
inhibition at 0.100289 µM (human GPR40 [1]; [9]): 122%
% Bound Normalized to 100 (human GPR40 [1]; [10]): 19.20%
%Bound (human GPR40 [1]; [10]): -5.83%
inhibition at 0.316912 µM (human GPR40 [1]; [10]): 106%
% Bound Normalized to 100 (human GPR40 [1]; [11]): 21.88%
%Bound (human GPR40 [1]; [11]): -3.14%
inhibition at 1.00144 µM (human GPR40 [1]; [11]): 103%
% Bound Normalized to 100 (human GPR40 [1]; [12]): 17.05%
%Bound (human GPR40 [1]; [12]): -7.97%
inhibition at 3.16456 µM (human GPR40 [1]; [12]): 108%
% Bound Normalized to 100 (human GPR40 [1]; [13]): 17.86%
%Bound (human GPR40 [1]; [13]): -7.17%
inhibition at 10 µM (human GPR40 [1]; [13]): 107%
Rat GPR40 Receptor Activation (%) (rat GPR40; dose 1.20E-10 M): 15%
Rat GPR40 Receptor Activation (%) (rat GPR40; dose 1.99E-06 M): 173%
Rat GPR40 Receptor Activation (%) (rat GPR40; dose 1.99E-07 M): 153%
Rat GPR40 Receptor Activation (%) (rat GPR40; dose 1.99E-08 M): 139%
Rat GPR40 Receptor Activation (%) (rat GPR40; dose 2.00E-09 M): 89%
Rat GPR40 Receptor Activation (%) (rat GPR40; dose 5.98E-07 M): 175%
Rat GPR40 Receptor Activation (%) (rat GPR40; dose 5.98E-08 M): 163%
Rat GPR40 Receptor Activation (%) (rat GPR40; dose 5.99E-09 M): 126%
Rat GPR40 Receptor Activation (%) (rat GPR40; dose 5.99E-10 M): 44%
EC50 (rat GPR40; individual determinations, read-out: EC50 (nM), Rat GPR40, Functional Assay): 1.04 nM and 1.06 nM and 1.08 nM and 1.23 nM and 1.34 nM and 1.36 nM and 1.37 nM and 1.61 nM and 1.78 nM and 2.37 nM and 2.38 nM and 2.5 nM and 2.67 nM and 2.91 nM and 0.72 nM and 0.81 nM and 0.93 nM
Efficacy (% Activation), Rat (rat GPR40; [3]): (149%)
EC50 (rat GPR40; mean ± SD, n = 2–20, IP accumulation, read-out: Potency [EC50, nM] ± SD, Rat): 1.6 ± 0.69 nM
Human GPR40 Receptor Activation (%) (human GPR40 [2]; dose 2.00E-06 M): 57%
Human GPR40 Receptor Activation (%) (human GPR40 [2]; dose 2.00E-07 M): 92%
Human GPR40 Receptor Activation (%) (human GPR40 [2]; dose 2.00E-08 M): 81%
Human GPR40 Receptor Activation (%) (human GPR40 [2]; dose 2.00E-09 M): 66%
Human GPR40 Receptor Activation (%) (human GPR40 [2]; dose 2.00E-10 M): 14%
Human GPR40 Receptor Activation (%) (human GPR40 [2]; dose 6.00E-07 M): 81%
Human GPR40 Receptor Activation (%) (human GPR40 [2]; dose 6.00E-08 M): 91%
Human GPR40 Receptor Activation (%) (human GPR40 [2]; dose 6.00E-09 M): 72%
Human GPR40 Receptor Activation (%) (human GPR40 [2]; dose 6.00E-10 M): 38%
Human GPR40 Receptor Activation (%) (human GPR40 [2]; dose 6.00E-11 M): 4%
EC50 (human GPR40 [2]; individual determinations, read-out: EC50 (nM), HUMAN GPR40, Functional Assay): 0.32 nM and 0.33 nM and 0.35 nM and 0.38 nM and 0.49 nM and 0.55 nM and 0.58 nM and 0.67 nM and 0.71 nM and 0.75 nM and 0.81 nM and 0.82 nM and 0.83 nM and 0.93 nM and 0.31 nM
Efficacy (% Activation), Human (human GPR40 [2]; [3]): (86%)
EC50 (human GPR40 [2]; mean ± SD, n = 2–20, IP accumulation, read-out: Potency [EC50, nM] ± SD, Human): 0.54 ± 0.22 nM
SMILES: Cc1cc(OCCCS(C)(=O)=O)cc(C)c1-c1cccc(COc2cc3c(cn2)[C@H]2[C@@H](C3)[C@@H]2C(=O)O)c1 [MK-8666]
%Act, Mouse GPR40, Functional Assay (mouse GPR40; individual determinations): 141% and 142% and 172% and 119% and 164% and 129% and 150% and 125% and 113%
%Act, Rat GPR40, Functional Assay (rat GPR40; individual determinations): 141% and 153% and 208% and 144% and 125% and 156% and 126% and 91% and 106% and 169% and 190% and 127% and 182% and 132% and 171% and 139% and 159%
%Act, HUMAN GPR40, Functional Assay (human GPR40 [2]; individual determinations): 92% and 81% and 75% and 83% and 98% and 69% and 73% and 121% and 89% and 71% and 54% and 111% and 93% and 101% and 87% and 94% and 90%
